Source: BindingDB's records for doi:10.1016/0024-3205(89)90523-7 (Nida Addiction Research Center, 1989)
Several values for one entry are separate records, joined by “and”; a condition that tells them apart may be missing. Equal values may be shown once.

Key:
[1] = target: Norepinephrine transporter (Rattus norvegicus, UniProt Q9JIA2)
[2] = target: D(1A) dopamine receptor (Rattus norvegicus, UniProt P18901)
[3] = target: Sodium-dependent dopamine transporter (Rattus norvegicus, UniProt P23977)
[4] = target: D(2) dopamine receptor (Rattus norvegicus, UniProt P61169)
Sequence of D(2) dopamine receptor (P61169 whole entry): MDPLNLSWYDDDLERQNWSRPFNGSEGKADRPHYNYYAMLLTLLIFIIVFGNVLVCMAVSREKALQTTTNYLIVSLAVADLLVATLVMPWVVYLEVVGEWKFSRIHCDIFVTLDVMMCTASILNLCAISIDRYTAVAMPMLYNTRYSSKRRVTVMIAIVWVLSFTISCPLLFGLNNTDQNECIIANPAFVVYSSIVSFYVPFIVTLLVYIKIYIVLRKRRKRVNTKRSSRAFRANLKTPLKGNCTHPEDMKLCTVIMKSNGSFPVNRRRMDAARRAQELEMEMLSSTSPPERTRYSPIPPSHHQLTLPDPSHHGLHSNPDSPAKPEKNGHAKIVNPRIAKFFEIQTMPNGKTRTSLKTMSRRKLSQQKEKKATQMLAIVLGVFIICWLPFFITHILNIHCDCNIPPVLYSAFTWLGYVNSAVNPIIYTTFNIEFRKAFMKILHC

[5] = target: T1, Muscarinic acetylcholine receptor M2 (Rattus norvegicus, UniProt P10980)
T1 sequence (P10980 whole entry): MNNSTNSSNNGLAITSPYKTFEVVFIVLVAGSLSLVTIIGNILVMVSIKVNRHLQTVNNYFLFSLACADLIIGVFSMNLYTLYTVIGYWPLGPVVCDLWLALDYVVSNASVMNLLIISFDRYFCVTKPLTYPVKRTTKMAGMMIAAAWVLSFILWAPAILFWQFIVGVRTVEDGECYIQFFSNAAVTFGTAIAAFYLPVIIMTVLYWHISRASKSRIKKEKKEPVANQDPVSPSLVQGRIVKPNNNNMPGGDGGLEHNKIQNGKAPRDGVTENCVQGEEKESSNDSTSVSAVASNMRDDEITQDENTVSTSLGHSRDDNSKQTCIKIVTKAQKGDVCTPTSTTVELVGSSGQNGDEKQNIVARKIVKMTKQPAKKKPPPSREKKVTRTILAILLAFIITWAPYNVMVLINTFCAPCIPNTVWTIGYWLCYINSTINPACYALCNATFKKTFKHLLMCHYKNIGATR

[6] = target: 5-hydroxytryptamine receptor 2A (Rattus norvegicus, UniProt P14842)
Sequence of 5-hydroxytryptamine receptor 2A (P14842 whole entry): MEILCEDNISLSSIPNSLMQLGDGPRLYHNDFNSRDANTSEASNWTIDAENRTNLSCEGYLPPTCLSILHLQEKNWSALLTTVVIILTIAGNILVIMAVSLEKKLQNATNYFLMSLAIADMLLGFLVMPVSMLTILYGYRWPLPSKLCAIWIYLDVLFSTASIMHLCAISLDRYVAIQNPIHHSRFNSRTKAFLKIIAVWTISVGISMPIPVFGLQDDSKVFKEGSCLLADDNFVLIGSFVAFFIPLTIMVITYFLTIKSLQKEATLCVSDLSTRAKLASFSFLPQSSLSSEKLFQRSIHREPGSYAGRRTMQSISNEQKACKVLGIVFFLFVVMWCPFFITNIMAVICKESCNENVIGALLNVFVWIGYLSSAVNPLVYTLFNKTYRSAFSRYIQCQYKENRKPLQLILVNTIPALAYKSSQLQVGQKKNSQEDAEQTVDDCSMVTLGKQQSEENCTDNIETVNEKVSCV

[7] = target: T2, Alpha-1A adrenergic receptor (Rattus norvegicus, UniProt P43140)
T2 sequence (P43140 whole entry): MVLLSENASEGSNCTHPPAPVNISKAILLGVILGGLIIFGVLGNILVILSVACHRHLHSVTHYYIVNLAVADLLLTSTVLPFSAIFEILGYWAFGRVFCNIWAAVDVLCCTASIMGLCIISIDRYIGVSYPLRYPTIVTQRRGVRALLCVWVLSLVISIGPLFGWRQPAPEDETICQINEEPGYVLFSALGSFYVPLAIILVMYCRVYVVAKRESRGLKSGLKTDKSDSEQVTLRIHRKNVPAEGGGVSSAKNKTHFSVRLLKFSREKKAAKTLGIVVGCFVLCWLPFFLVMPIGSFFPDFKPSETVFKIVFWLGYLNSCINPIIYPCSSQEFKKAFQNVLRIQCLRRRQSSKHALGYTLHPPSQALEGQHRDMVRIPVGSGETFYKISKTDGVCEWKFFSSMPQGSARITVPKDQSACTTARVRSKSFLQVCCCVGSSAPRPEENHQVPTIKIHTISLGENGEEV

Sequence of Sodium-dependent dopamine transporter (P23977 whole entry): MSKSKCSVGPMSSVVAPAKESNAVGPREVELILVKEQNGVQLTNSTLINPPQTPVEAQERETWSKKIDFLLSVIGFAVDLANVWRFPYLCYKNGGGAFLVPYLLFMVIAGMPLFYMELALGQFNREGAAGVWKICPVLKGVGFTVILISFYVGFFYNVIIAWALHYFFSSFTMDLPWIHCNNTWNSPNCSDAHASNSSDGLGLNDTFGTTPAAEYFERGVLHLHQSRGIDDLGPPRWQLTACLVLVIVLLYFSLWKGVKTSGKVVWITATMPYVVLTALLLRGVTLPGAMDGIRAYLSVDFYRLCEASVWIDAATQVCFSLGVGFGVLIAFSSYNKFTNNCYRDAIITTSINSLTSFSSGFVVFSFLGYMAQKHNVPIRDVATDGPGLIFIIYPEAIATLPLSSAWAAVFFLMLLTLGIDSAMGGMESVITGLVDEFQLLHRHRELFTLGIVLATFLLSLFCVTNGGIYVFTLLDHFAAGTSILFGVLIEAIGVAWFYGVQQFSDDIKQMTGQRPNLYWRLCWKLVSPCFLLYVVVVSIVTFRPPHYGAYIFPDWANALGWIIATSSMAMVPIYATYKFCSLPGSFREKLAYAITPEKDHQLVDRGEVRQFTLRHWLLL
Sequence of D(1A) dopamine receptor (P18901 whole entry): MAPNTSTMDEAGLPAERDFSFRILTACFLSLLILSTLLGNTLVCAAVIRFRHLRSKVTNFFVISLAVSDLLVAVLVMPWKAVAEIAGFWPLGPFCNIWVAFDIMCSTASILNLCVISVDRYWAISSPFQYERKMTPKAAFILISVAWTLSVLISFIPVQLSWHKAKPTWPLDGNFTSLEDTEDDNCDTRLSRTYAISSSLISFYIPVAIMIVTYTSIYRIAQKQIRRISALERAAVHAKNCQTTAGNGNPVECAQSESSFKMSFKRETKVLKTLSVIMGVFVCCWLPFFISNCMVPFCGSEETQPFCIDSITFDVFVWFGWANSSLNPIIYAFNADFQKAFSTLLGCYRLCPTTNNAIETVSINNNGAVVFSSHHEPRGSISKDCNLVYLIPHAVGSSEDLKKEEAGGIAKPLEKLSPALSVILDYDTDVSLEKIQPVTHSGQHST

Question: Which Ki [1] does the source give for `CNc1cc(OC)c(C(=O)NCCN(C)Cc2ccc(I)cc2)cc1Cl` [CAS_130377] here?
Answer: Its Ki is 2720 nM.

Question: What about the Ki [2] of the same molecule?
Answer: Its Ki is 1880 nM.

Question: What about the Ki [3] of the same molecule?
Answer: Its Ki is 209 nM.

Question: And the Ki [4]?
Answer: The Ki was 0.13 nM and 0.215 nM.

Question: And the Ki [5]?
Answer: Its Ki is 110 nM.

Question: And the Ki [6]?
Answer: The Ki was 1790 nM.

Question: And the Ki [7]?
Answer: The Ki was 62 nM.
